# Laboratory results published in patent US12600728B2, “Interleukin-17 inhibitors” (priority 2020, dated 2026).
# Read-outs that look alike come from different tables or passages of the source.
# Columns and labels:
# [1] = biological target: biotinylated human IL-17A / AF647-labeled human IL-17RA (Homo sapiens, UniProt Q16552); assay: Human IL-17A×IL-17RA TR-FRET assay; type: binding
# Experimental: Human IL-17A×IL-17RA TR-FRET Assay
# Each compound concentration is tested in duplicate.
# The final total assay volume is 10 μL.
# Each plate contains test compounds in columns 1-22 and controls in columns 23 and 24. The neutral control (NC) contains all the assay components, but DMSO instead of test compound. […] The fluorescence values for emission at 615 nm and 665 nm are loaded to the evaluation software Helios.
# From the activity data at each compound concentration, the IC50 values are obtained using the 4-parameter logistic function (“Hill-slope model”) of Helios.
# [2] = biological target: recombinant human IL-17AA (Homo sapiens, UniProt Q16552); assay: IL-6 release from NHDF cells, IL-17AA plus TNF-α stimulation; type: cell-based; conditions: 24 hours, IL-6 by ELISA
# recombinant human IL-17AA, sequence (Q16552 24-155): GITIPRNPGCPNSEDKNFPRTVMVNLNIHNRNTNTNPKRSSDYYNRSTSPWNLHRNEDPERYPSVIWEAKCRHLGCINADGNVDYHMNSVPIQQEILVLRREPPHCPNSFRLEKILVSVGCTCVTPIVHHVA
# Experimental: IL-6 Release from NHDF Cells (Normal Human Dermal Fibroblasts)
# NHDF cells isolated from normal adult mesoderm, connective tissues were cultured in fibroblast growth medium containing 2% supplement. […] The cells were allowed to adhere overnight before they were incubated with the compound/cytokine cocktail.
# Diluted compounds were pre-incubated with recombinant human IL-17AA or IL-17AF plus human TNF-α for 30 minutes at room temperature on a shaker. […] The cells were incubated with the compound/cytokines cocktail for 24 hours at 37° C. (5% CO2). […] The final DMSO or plasma concentrations were 0.1% or 20%, respectively. All compound incubations were done in duplicate. The supernatants were collected to quantify IL-6 by ELISA according to the manufacturers instructions. The optical density was measured at 450 nm by an EnVision Multilabel Plate Reader (Perkin Elmer). The IL-6 levels produced after TNF-α stimulation were subtracted from the IL-6 produced after IL-17/TNF-α co-stimulation. These IL-17-specific IL-6 concentrations were used for […] value calculation.
# [3] = TR-FRET, 5 nM IL-17A, 30 nM IL-17RA, read-out: IL17AA FRET/ IL17Rawt IC50
# [4] = NHDF cells, IL-17AA 30 pM + TNF-α 6 pM, read-out: IL17AA + TNF IC50 IL-6
# [5] = TR-FRET, biotinylated human IL-17A 5 nM, AF647-labeled human IL-17RA 30 nM, read-out: IL17AA FRET/ IL17Rawt IC50
# [6] = NHDF cells, IL-17AA 30 pM plus TNF-α 6 pM, read-out: IL17AA + TNF IC50 IL-6
# [7] = IL17AA FRET/ IL17Rawt IC50, TR-FRET, biotinylated human IL-17A 5 nM, AF647-labeled human IL-17RA 30 nM
# [8] = IL17AA + TNF IC50 IL-6, NHDF cells, IL-17AA 30 pM plus TNF-α 6 pM
# biotinylated human IL-17A / AF647-labeled human IL-17RA, sequence (Q16552 24-155): as above
SMILES,"IC50 [1, 5]","IC50 [2, 6]",further results
"Cc1cc[n+]([O-])c(C)c1-c1ccc(NC(=O)[C@@H](NC(=O)c2cn[nH]c2C(C)C)C2CCCCC2)cc1 [Example 157, (S)-3-(4-(2-cyclohexyl-2-(5-isopropyl-1H-pyrazole-4-carboxamido)acetamido)phenyl)-2,4-dimethylpyridine 1-oxide]",–,–,"IC50 [1, 3]: 170 nM; IC50 [2, 4]: 105 nM"
"Cc1c(-c2ccc(NC(=O)[C@@H](NC(=O)c3ccnn3C)C3CCCCC3)c(F)c2F)c(Cl)cc[n+]1[O-] [Example 62, 4-chloro-3-(4-((S)-2-cyclohexyl-2-(1-methyl-1H-pyrazole-5-carboxamido)acetamido)-2,3-difluorophenyl)-2-methylpyridine 1-oxide]",15 nM,7 nM,–
"CCn1nccc1C(=O)NC(C(=O)Nc1ccc(-c2c(Cl)cc[n+]([O-])c2C)c(F)c1)C1CCC(F)(F)CC1 (stereo not drawn) [Example 108, 4-chloro-3-(4-(2-(4,4-difluorocyclohexyl)-2-(1-ethyl-1H-pyrazole-5-carboxamido)acetamido)-2-fluorophenyl)-2-methylpyridine 1-oxide]",–,–,"IC50 [1, 7]: 30 nM; IC50 [2, 8]: 7 nM"
"Cc1c(-c2ccc(NC(=O)[C@@H](NC(=O)c3ccnn3C)C3CCCCC3)cc2F)c(Cl)cc[n+]1[O-] [Example 2, 4-chloro-3-(4-((S)-2-cyclohexyl-2-(1-methyl-1H-pyrazole-5-carboxamido)acetamido)-2-fluorophenyl)-2-methylpyridine 1-oxide]",24 nM,15 nM,–
"Cc1c(-c2ccc(NC(=O)C(NC(=O)c3ccc4n3CCNC4)C3CCCc4ccccc43)cc2F)c(Cl)cc[n+]1[O-] [Example 186, 4-chloro-3-(2-fluoro-4-((S)-2-((S)-1,2,3,4-tetrahydronaphtha]en-1-yl)-2-(1,2,3,4-tetrahydropyrrolo[1,2-a]pyrazine-6-carboxamido)acetamido)phenyl)-2-methylpyridine 1-oxide]",–,–,"IC50 [1, 3]: 81.5 nM; IC50 [2, 4]: 34 nM"
"CC(=O)N1CCn2c(ccc2C(=O)N[C@H](C(=O)Nc2ccc(-c3c(C)c[n+]([O-])cc3C)cc2)C2CCCCCC2)C1 [Example 118, (S)-4-(4-(2-(2-acetyl-1,2,3,4-tetrahydropyrrolo[1,2-a]pyrazine-6-carboxamido)-2-cycloheptylacetamido)phenyl)-3,5-dimethylpyridine 1-oxide]",183 nM,20 nM,–
"COCc1nocc1C(=O)NC(C(=O)Nc1ccc(-c2c(C)cc[n+]([O-])c2C)cc1)C1CCC(C(F)(F)F)CC1 [Example 25, 3-(4-((S)-2-(3-(methoxymethyl)isoxazole-4-carboxamido)-2-((1r,4S)-4-(trifluoromethyl)cyclohexyl)acetamido)phenyl)-2,4-dimethylpyridine 1-oxide]",178 nM,69 nM,–
"Cc1cc[n+]([O-])c(C)c1-c1ccc(NC(=O)C(NC(=O)c2ccnn2C)C2CCC(C(F)(F)F)CC2)cc1 [Example 24, 2,4-dimethyl-3-(4-((S)-2-(1-methyl-1H-pyrazole-5-carboxamido)-2-((1r,4S)-4-(trifluoromethyl)cyclohexyl)acetamido)phenyl)pyridine 1-oxide]",–,–,"IC50 [1, 7]: 114 nM; IC50 [2, 8]: 48 nM"
"Cc1c[n+]([O-])cc(C)c1-c1ccc(NC(=O)[C@@H](NC(=O)c2ccc3n2CCNC3)C2CCCCCC2)cc1 [Example 116, (S)-4-(4-(2-cycloheptyl-2-(1,2,3,4-tetrahydropyrrolo[1,2-a]pyrazine-6-carboxamido)acetamido)phenyl)-3,5-dimethylpyridine 1-oxide]",304 nM,118 nM,–
"Cc1cc[n+]([O-])c(C)c1-c1ccc(NC(=O)[C@@H](NC(=O)c2ccnn2C2CC2)C2CCCCC2)cc1 [Example 94, (S)-3-(4-(2-cyclohexyl-2-(1-cyclopropyl-1H-pyrazole-5-carboxamido)acetamido)phenyl)-2,4-dimethylpyridine 1-oxide]",128 nM,47 nM,–
"Cc1nocc1C(=O)N[C@H](C(=O)Nc1ccc(-c2cc(Cl)c[n+]([O-])c2C)cc1)C1CCC(F)(F)CC1 [Example 173, (S)-5-chloro-3-(4-(2-(4,4-difluorocyclohexyl)-2-(3-methylisoxazole-4-carboxamido)acetamido)phenyl)-2-methylpyridine 1-oxide]",–,–,"IC50 [1, 3]: 659 nM; IC50 [2, 4]: 1680 nM"
"Cc1c(-c2ccc(NC(=O)[C@@H](NC(=O)c3ccc4n3CCN(C3COC3)C4)C3CCCCC3)cc2F)c(Cl)cc[n+]1[O-] [Example 133, 4-chloro-3-(4-((S)-2-cyclohexyl-2-(2-(oxetan-3-yl)-1,2,3,4-tetrahydropyrrolo[1,2-a]pyrazine-6-carboxamido)acetamido)-2-fluorophenyl)-2-methylpyridine 1-oxide]",99 nM,17 nM,–
"Cc1c[n+]([O-])cc(C)c1-c1ccc(NC(=O)[C@@H](NC(=O)c2ccnn2C2CC2)C2CCCCCC2)cc1 [Example 100, (S)-4-(4-(2-cycloheptyl-2-(1-cyclopropyl-1H-pyrazole-5-carboxamido)acetamido)phenyl)-3,5-dimethylpyridine 1-oxide]",243 nM,46 nM,–
"Cc1nocc1C(=O)NC(C(=O)Nc1ccc(-c2c(Cl)cc[n+]([O-])c2C)c(F)c1)[C@H]1C[C@@H]2C[C@@H]2C1 (stereo partly drawn) [Example 57, 3-(4-(2-((1R,3s,5S)-bicyclo[3.1.0]hexan-3-yl)-2-(3-methylisoxazole-4-carboxamido)acetamido)-2-fluorophenyl)-4-chloro-2-methylpyridine 1-oxide]",37 nM,12 nM,–
"Cc1cc[n+]([O-])c(C)c1-c1ccc(NC(=O)[C@@H](NC(=O)c2ccnn2C)C2CCC(F)(F)C2)cc1 (stereo partly drawn) [Example 87, 3-(4-((2S)-2-(3,3-difluorocyclopentyl)-2-(1-methyl-1H-pyrazole-5-carboxamido)acetamido)phenyl)-2,4-dimethylpyridine 1-oxide]",489 nM,504 nM,–
"CC(=O)N1CCn2ccc(C(=O)N[C@H](C(=O)Nc3ccc(-c4c(C)cc[n+]([O-])c4C)cc3)C3CCCCCC3)c2C1 [Example 185, (S)-3-(4-(2-(2-acetyl-1,2,3,4-tetrahydropyrrolo[1,2-a]pyrazine-8-carboxamido)-2-cycloheptylacetamido)phenyl)-2,4-dimethylpyridine 1-oxide]",–,–,"IC50 [1, 3]: 77.1 nM; IC50 [2, 4]: 9.75 nM"
"Cc1c(-c2ccc(NC(=O)[C@@H](NC(=O)c3ccnn3C)C3CC=C(F)CC3)cc2)c(C(F)(F)F)cc[n+]1[O-] (stereo partly drawn) [Example 65, 3-(4-((2S)-2-(4-fluorocyclohex-3-en-1-yl)-2-(1-methyl-1H-pyrazole-5-carboxamido)acetamido)phenyl)-2-methyl-4-(trifluoromethyl)pyridine 1-oxide]",57 nM,24 nM,–
"Cc1c(-c2ccc(NC(=O)[C@@H](NC(=O)c3ccnn3C)[C@H]3CCCC(F)(F)C3)cc2F)c(Cl)cc[n+]1[O-] [Example 110, 4-chloro-3-(4-((S)-2-((S)-3,3-difluorocyclohexyl)-2-(1-methyl-1H-pyrazole-5-carboxamido)acetamido)-2-fluorophenyl)-2-methylpyridine 1-oxide]",–,8 nM,–
"Cc1nocc1C(=O)NC(C(=O)Nc1ccc(-c2c(Cl)cc[n+]([O-])c2C)cc1)C1CC2CC2C1 (single isomer, unassigned) [Example 146]",–,–,"IC50 [2, 4]: 57 nM"
"Cc1c(-c2ccc(NC(=O)[C@@H](NC(=O)c3ccnn3C)C3CCCCC3)cc2F)ccc[n+]1[O-] [Example 83, (S)-3-(4-(2-cyclohexyl-2-(1-methyl-1H-pyrazole-5-carboxamido)acetamido)-2-fluorophenyl)-2-methylpyridine 1-oxide]",–,115 nM,–
"Cc1cc[n+]([O-])cc1-c1ccc(NC(=O)[C@@H](NC(=O)c2ccnn2C)C2CCCCC2)cc1F [Example 168, (S)-3-(4-(2-cyclohexyl-2-(1-methyl-1H-pyrazole-5-carboxamido)acetamido)-2-fluorophenyl)-4-methylpyridine 1-oxide]",–,–,"IC50 ([1]; IL17AA FRET/ IL17Rawt IC50, TR-FRET, 5 nM IL-17A, 30 nM IL-17RA): 1470 nM"
"Cc1nccc(Cl)c1-c1ccc(NC(=O)[C@@H](NC(=O)c2ccnn2C)C2CCCCC2)cc1F [compound 137, N-((1S)-2-((4-(4-chloro-2-methylpyridin-3-yl)-3-fluorophenyl)amino)-1-cyclohexyl-2-oxoethyl)-1-methyl-1H-pyrazole-5-carboxamide, reference compound]",–,–,"IC50 ([2]; NHDF cells, IL-17AA 30 pM + TNF-α 6 pM, reference examples (pyridines), read-out: IL 17AA + TNF IC50 IL-6): 578 nM"
